Assay results: US9822114B2, “Tricyclic oxazolidinone antibiotic compounds” (Idorsia Pharmaceuticals Ltd, priority 2008, dated 2017)
≈ marks a conversion by molar mass, not a printed value.

Test system: M. catarrhalis A894
Test: Minimal inhibitory concentration (MIC), microdilution method in cation-adjusted Mueller-Hinton Broth (CLSI M7-A7)
Format: cell-based
Settings: strain A894; for MIC: Moraxella catarrhalis
Procedure: Minimal inhibitory concentrations (MICs; mg/1) were determined in cation-adjusted Mueller-Hinton Broth by a microdilution method following the description given in “Methods for Dilution Antimicrobial Susceptibility Tests for Bacteria that Grow Aerobically”, Approved standard, 7th ed., Clinical and Laboratory Standards Institute (CLSI) Document M7-A7, Wayne, Pa., USA, 2006.

| Compound | MIC | MIC for M. catarrhalis A894 |
| --- | --- | --- |
| O=C1COc2ccc(N3C[C@H](CCCN[C@H]4Cn5c(=O)ccc6ccc(F)c4c65)OC3=O)nc2N1 [Example 193, (R)-9-fluoro-1-{3-[(S)-2-oxo-3-(3-oxo-3,4-dihydro-2H-pyrido[3,2-b][1,4]oxazin-6-yl)-oxazolidin-5-yl]-propylamino}-1,2-dihydro-pyrrolo[3,2,1-ij]quinolin-4-one] | ≤ 0.031 µg/mL | – |
| CCCc1ccc(N2C[C@@H](CCNC3Cn4c(=O)ccc5ccc(F)c3c54)OC2=O)cc1 (mixture of isomers) [Example 59, (RS)-9-fluoro-1-{2-[(R)-2-oxo-3-(4-propyl-phenyl)-oxazolidin-5-yl]-ethylamino}-1,2-dihydro-pyrrolo[3,2,1-ij]quinolin-4-one] | 4 µg/mL | – |
| O=C1COc2ccc(N3C[C@@H](CCCNC4Cn5c(=O)ccc6ncc(F)c4c65)OC3=O)cc2N1 (mixture of isomers) [Example 95, (RS)-3-fluoro-4-{3-[(R)-2-oxo-3-(3-oxo-3,4-dihydro-2H-benzo[1,4]oxazin-6-yl)-oxazolidin-5-yl]-propylamino}-4,5-dihydro-pyrrolo[3,2,1-de][1,5]naphthyridin-7-one] | ≤ 0.031 µg/mL | – |
| O=C1O[C@H](CNCC2Cn3c(=O)ccc4ccc(F)c2c43)CN1c1ccc2c(c1)OCCO2 (mixture of isomers) [Example 31, (1RS)-1-({[(R)-3-(2,3-dihydro-benzo[1,4]dioxin-6-yl)-2-oxo-oxazolidin-5-ylmethyl]-amino}-methyl)-9-fluoro-1,2-dihydro-pyrrolo[3,2,1-ij]quinolin-4-one] | 16 µg/mL | – |
| O=C1CSc2ccc(N3C[C@@H](CCCN[C@@H]4Cn5c(=O)ccc6nccc4c65)OC3=O)cc2N1 [Example 39, (S)-4-{3-[(R)-2-oxo-3-(3-oxo-3,4-dihydro-2H-benzo[1,4]thiazin-6-yl)-oxazolidin-5-yl]-propylamino}-4,5-dihydro-pyrrolo[3,2,1-de][1,5]naphthyridin-7-one] | ≤ 0.031 µg/mL | – |
| COc1nc2ccc(F)c3c2n(c1=O)C[C@@H]3NCCC[C@@H]1CN(c2ccc3c(c2)NC(=O)CS3)C(=O)O1 [Example 112, (R)-7-fluoro-2-methoxy-6-{3-[(R)-2-oxo-3-(3-oxo-3,4-dihydro-2H-benzo[1,4]thiazin-6-yl)-oxazolidin-5-yl]-propylamino}-5,6-dihydro-pyrrolo[1,2,3-de]quinoxalin-3-one] | ≤ 0.031 µg/mL | – |
| O=C1O[C@H](CCNCC2Cn3c(=O)ccc4ccc(F)c2c43)CN1c1ccc2c(c1)OCCO2 (mixture of isomers) [Example 46, (RS)-1-({2-[(R)-3-(2,3-dihydro-benzo[1,4]dioxin-6-yl)-2-oxo-oxazolidin-5-yl]-ethylamino}-methyl)-9-fluoro-1,2-dihydro-pyrrolo[3,2,1-ij]quinolin-4-one] | ≤ 0.031 µg/mL | – |
| O=C1CSc2ccc(N3C[C@H](CCCN[C@H]4Cn5c(=O)ccc6c(CO)ccc4c65)OC3=O)cc2N1 [Example 120, (R)-7-hydroxymethyl-1-{3-[(S)-2-oxo-3-(3-oxo-3,4-dihydro-2H-benzo[1,4]thiazin-6-yl)-oxazolidin-5-yl]-propylamino}-1,2-dihydro-pyrrolo[3,2,1-ij]quinolin-4-one] | 0.125 µg/mL (≈ 0.247 µM) | – |
| O=C1CSc2ccc(N3C[C@H](CCNC4Cn5c(=O)ccc6ncc(F)c4c65)OC3=O)cc2N1 (mixture of isomers) [Example 84, (RS)-3-fluoro-4-{2-[(S)-2-oxo-3-(3-oxo-3,4-dihydro-2H-benzo[1,4]thiazin-6-yl)-oxazolidin-5-yl]-ethylamino}-4,5-dihydro-pyrrolo[3,2,1-de][1,5]naphthyridin-7-one] | 0.063 µg/mL | – |
| O=C1CSc2ccc(N3C[C@H](CCCN[C@H]4Cn5c(=O)ccc6c(CN7CCCC7)ccc4c65)OC3=O)cc2N1 [Example 123, (R)-1-{3-[(S)-2-oxo-3-(3-oxo-3,4-dihydro-2H-benzo[1,4]thiazin-6-yl)-oxazolidin-5-yl]-propylamino}-7-pyrrolidin-1-ylmethyl-1,2-dihydro-pyrrolo[3,2,1-ij]quinolin-4-one] | 0.125 µg/mL (≈ 0.223 µM) | – |
| O=C1O[C@@H](CCNC2Cn3c(=O)ccc4ccc(F)c2c43)CN1c1ccc2c(c1)OCCO2 (mixture of isomers) [Example 107, (RS)-1-{2-[(S)-3-(2,3-dihydro-benzo[1,4]dioxin-6-yl)-2-oxo-oxazolidin-5-yl]-ethylamino}-9-fluoro-1,2-dihydro-pyrrolo[3,2,1-ij]quinolin-4-one] | 8 µg/mL | – |
| CCCCc1ccc(N2C[C@@H](CNCC3Cn4c(=O)ccc5ccc(F)c3c54)OC2=O)cc1 (mixture of isomers) [Example 38, (RS)-1-({[(R)-3-(4-butyl-phenyl)-2-oxo-oxazolidin-5-ylmethyl]-amino}-methyl)-9-fluoro-1,2-dihydro-pyrrolo[3,2,1-ij]quinolin-4-one] | 16 µg/mL | – |
| CN(CCC[C@@H]1CN(c2ccc3c(c2)NC(=O)CS3)C(=O)O1)C1Cn2c(=O)ccc3ccc(F)c1c32 (mixture of isomers) [Example 153, (RS)-9-fluoro-1-(methyl-{3-[(R)-2-oxo-3-(3-oxo-3,4-dihydro-2H-benzo[1,4]thiazin-6-yl)-oxazolidin-5-yl]-propyl}-amino)-1,2-dihydro-pyrrolo[3,2,1-ij]quinolin-4-one] | ≤ 0.031 µg/mL | – |
| O=C1COc2ccc(N3C[C@H](CCNCC4Cn5c(=O)ccc6ncc(F)c4c65)OC3=O)cc2N1 (mixture of isomers) [Example 102, (RS)-3-fluoro-4-({2-[(S)-2-oxo-3-(3-oxo-3,4-dihydro-2H-benzo[1,4]oxazin-6-yl)-oxazolidin-5-yl]-ethylamino}-methyl)-4,5-dihydro-pyrrolo[3,2,1-de][1,5]naphthyridin-7-one] | ≤ 0.031 µg/mL | – |
| (1R,2R)-2-hydroxymethyl-1-{3-[(R)-2-oxo-3-(3-oxo-3,4-dihydro-2H-benzo[1,4]thiazin-6-yl)-oxazolidin-5-yl]-propylamino}-1,2-dihydro-pyrrolo[3,2,1-ij]quinolin-4-one and (1S,2S)-2-hydroxymethyl-1-{3-[(R)-2-oxo-3-(3-oxo-3,4-dihydro-2H-benzo[1,4]thiazin-6-yl)-oxazolidin-5-yl]-propylamino}-1,2-dihydro-pyrrolo[3,2,1-ij]quinolin-4-one [Example 163] | – | 0.031 µg/mL |
| Cl.Cl.O=C1CSc2ccc(N3C[C@@H](CCCNC4CN5C(=O)CN(CCCO)c6ccc(F)c4c65)OC3=O)nc2N1 (mixture of isomers) [Example 202, (RS)-7-fluoro-6-{3-[(R)-2-oxo-3-(3-oxo-3,4-dihydro-2H-pyrido[3,2-b][1,4]thiazin-6-yl)-oxazolidin-5-yl]-propylamino}-1-(3-hydroxypropyl)-1,2,5,6-tetrahydro-pyrrolo[1,2,3-de]quinoxalin-3-one dihydrochloride] | 0.063 µg/mL | – |
| CCCc1ccc(N2C[C@@H](CNCC3Cn4c(=O)ccc5ccc(F)c3c54)OC2=O)cc1 (mixture of isomers) [Example 37, (RS)-9-fluoro-1-({[(R)-2-oxo-3-(4-propyl-phenyl)-oxazolidin-5-ylmethyl]-amino}-methyl)-1,2-dihydro-pyrrolo[3,2,1-ij]quinolin-4-one] | 1 µg/mL | – |
| O=C1CSc2ccc(N3C[C@@H](CCCNC4Cn5c(=O)ccc6ccc(F)c4c65)OC3=O)nc2N1 (mixture of isomers) [Example 125, (RS)-9-fluoro-1-{3-[(R)-2-oxo-3-(3-oxo-3,4-dihydro-2H-pyrido[3,2-b][1,4]thiazin-6-yl)-oxazolidin-5-yl]-propylamino}-1,2-dihydro-pyrrolo[3,2,1-ij]quinolin-4-one] | ≤ 0.031 µg/mL | – |
| O=C1CSc2ccc(N3C[C@H](CNCC4Cn5c(=O)ccc6cccc4c65)OC3=O)nc2N1 (mixture of isomers) [Example 175, (RS)-1-({[(S)-2-oxo-3-(3-oxo-3,4-dihydro-2H-pyrido[3,2-b][1,4]thiazin-6-yl)-oxazolidin-5-ylmethyl]-amino}-methyl)-1,2-dihydro-pyrrolo[3,2,1-ij]quinolin-4-one] | ≤ 0.031 µg/mL | – |
| O=C1COc2ccc(N3C[C@H](CCN[C@H]4Cn5c(=O)ccc6cccc4c65)OC3=O)cc2N1 [Example 157, (R)-1-{2-[(S)-2-oxo-3-(3-oxo-3,4-dihydro-2H-benzo[1,4]oxazin-6-yl)-oxazolidin-5-yl]-ethylamino}-1,2-dihydro-pyrrolo[3,2,1-ij]quinolin-4-one] | 2 µg/mL (≈ 4.48 µM) | – |
| O=C1CSc2ccc(N3C[C@@H](CCCN[C@@H]4c5c(F)ccc6ccc(=O)n(c56)[C@H]4CO)OC3=O)cc2N1 (relative stereo) [Example 182, (1R*,2R*)-9-fluoro-2-hydroxymethyl-1-{3-[(R)-2-oxo-3-(3-oxo-3,4-dihydro-2H-benzo[1,4]thiazin-6-yl)-oxazolidin-5-yl]-propylamino}-1,2-dihydro-pyrrolo[3,2,1-ij]quinolin-4-one] | ≤ 0.031 µg/mL | – |
| O=C1COc2ccc(N3C[C@@H](CCNCC4Cn5c(=O)cnc6cccc4c65)OC3=O)cc2N1 (mixture of isomers) [Example 155, (RS)-6-({2-[(R)-2-oxo-3-(3-oxo-3,4-dihydro-2H-benzo[1,4]oxazin-6-yl)-oxazolidin-5-yl]-ethylamino}-methyl)-5,6-dihydro-pyrrolo[1,2,3-de]quinoxalin-3-one] | ≤ 0.031 µg/mL | – |
| O=C1CSc2ccc(N3C[C@H](CCCN[C@@H]4Cn5c(=O)ccc6cccc4c65)OC3=O)nc2N1 [Example 136, (S)-1-{3-[(S)-2-oxo-3-(3-oxo-3,4-dihydro-2H-pyrido[3,2-b][1,4]thiazin-6-yl)-oxazolidin-5-yl]-propylamino}-1,2-dihydro-pyrrolo[3,2,1-ij]quinolin-4-one] | ≤ 0.031 µg/mL | – |
| O=C1CSc2ccc(N3C[C@@H](CCCN[C@@H]4Cn5c(=O)cnc6cccc4c65)OC3=O)cc2N1 [Example 48, (S)-6-{3-[(R)-2-oxo-3-(3-oxo-3,4-dihydro-2H-benzo[1,4]thiazin-6-yl)-oxazolidin-5-yl]-propylamino}-5,6-dihydro-pyrrolo[1,2,3-de]quinoxalin-3-one] | ≤ 0.031 µg/mL | – |
| O=C1CSc2ccc(N3C[C@H](CNCC4Cn5c(=O)cnc6cccc4c65)OC3=O)cc2N1 (mixture of isomers) [Example 106, (RS)-6-({[(S)-2-oxo-3-(3-oxo-3,4-dihydro-2H-benzo[1,4]thiazin-6-yl)-oxazolidin-5-ylmethyl]-amino}-methyl)-5,6-dihydro-pyrrolo[1,2,3-de]quinoxalin-3-one] | ≤ 0.031 µg/mL | – |
